# Assay results: PMC8523698, “Preclinical characterization of an intravenous coronavirus 3CL protease inhibitor for the potential treatment of COVID19” (Nature Communications, 2021)
# “And” between values parts separate entries of the source, which are not always exact repeats. Equal values may be shown once.
# Legend:
# MHV-CoV 3CL^pro = MHV-CoV 3CL^pro (Murine coronavirus, UniProt P0C6X9); format: biochemical
# OC43-CoV 3CL^pro = OC43-CoV 3CL^pro (Human coronavirus OC43, UniProt P0C6X6); format: biochemical
# Chain of OC43-CoV 3CL^pro (P0C6X6 3247-3549): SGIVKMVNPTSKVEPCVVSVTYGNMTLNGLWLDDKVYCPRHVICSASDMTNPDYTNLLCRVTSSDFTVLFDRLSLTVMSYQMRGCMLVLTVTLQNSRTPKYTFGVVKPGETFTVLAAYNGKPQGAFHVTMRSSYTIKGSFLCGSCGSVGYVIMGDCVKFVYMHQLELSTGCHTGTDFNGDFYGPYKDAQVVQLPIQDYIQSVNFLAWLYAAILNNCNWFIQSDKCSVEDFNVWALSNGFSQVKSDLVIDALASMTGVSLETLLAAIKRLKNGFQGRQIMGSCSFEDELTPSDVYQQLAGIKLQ
# Human Cathepsin D = Human Cathepsin D (Homo sapiens, UniProt P07339); assay: Mammalian protease panel; format: biochemical
# Chain of Human Cathepsin D (P07339 65-412): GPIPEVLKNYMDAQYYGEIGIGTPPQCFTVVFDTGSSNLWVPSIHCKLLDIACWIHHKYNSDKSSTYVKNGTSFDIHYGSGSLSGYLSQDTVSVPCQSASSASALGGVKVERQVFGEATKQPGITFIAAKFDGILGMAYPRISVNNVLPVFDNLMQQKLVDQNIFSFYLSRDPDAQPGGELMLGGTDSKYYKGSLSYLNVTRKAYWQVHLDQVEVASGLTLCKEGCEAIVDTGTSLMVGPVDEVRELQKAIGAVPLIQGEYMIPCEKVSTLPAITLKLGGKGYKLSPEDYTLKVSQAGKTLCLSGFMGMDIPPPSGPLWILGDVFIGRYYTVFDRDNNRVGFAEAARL
# [1] = Plasma protein binding by equilibrium dialysis; settings: for fraction unbound at 6 h, 5 uM / fraction unbound at 6 h: human, plasma
# [2] = Liver microsome binding by equilibrium dialysis; settings: for fraction unbound at 6 h: human, human liver microsomes, fu
# CYP2C19 = CYP2C19 (Homo sapiens, UniProt P33261); assay: Reversible CYP inhibition in human liver microsomes
# Chain of CYP2C19 (P33261 whole entry): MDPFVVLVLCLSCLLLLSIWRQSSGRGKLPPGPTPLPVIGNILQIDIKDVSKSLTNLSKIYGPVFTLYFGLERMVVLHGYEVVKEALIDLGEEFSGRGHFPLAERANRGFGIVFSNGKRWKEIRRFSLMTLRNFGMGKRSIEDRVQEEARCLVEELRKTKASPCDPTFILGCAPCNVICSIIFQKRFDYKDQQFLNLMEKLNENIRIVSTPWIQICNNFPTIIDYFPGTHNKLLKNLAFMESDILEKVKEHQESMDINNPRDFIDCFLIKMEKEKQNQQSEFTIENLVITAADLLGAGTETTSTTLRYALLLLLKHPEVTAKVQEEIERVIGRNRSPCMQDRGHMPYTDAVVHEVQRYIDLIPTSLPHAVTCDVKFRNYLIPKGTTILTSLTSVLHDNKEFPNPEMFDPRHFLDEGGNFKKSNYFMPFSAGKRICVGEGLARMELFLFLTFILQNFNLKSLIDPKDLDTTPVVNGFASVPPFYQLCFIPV
# Chain of MHV-CoV 3CL^pro (P0C6X9 3334-3635): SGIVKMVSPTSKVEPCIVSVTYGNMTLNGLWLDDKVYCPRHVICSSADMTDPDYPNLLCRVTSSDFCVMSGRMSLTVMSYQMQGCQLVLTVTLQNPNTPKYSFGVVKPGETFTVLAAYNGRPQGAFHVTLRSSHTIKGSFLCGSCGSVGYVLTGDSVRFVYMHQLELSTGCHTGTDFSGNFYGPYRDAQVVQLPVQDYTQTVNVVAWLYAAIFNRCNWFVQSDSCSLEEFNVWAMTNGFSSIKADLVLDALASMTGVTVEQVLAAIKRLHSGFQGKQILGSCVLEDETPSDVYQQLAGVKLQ
structure (smiles),measurement,setting,value
COc1cccc2[nH]c(C(=O)N[C@@H](CC(C)C)C(=O)N[C@@H](C[C@@H]3CCNC3=O)C(=O)CO)cc12 [PF-00835231],Ki,MHV-CoV 3CL^pro,1.2 ± 0.9 nM
same,Ki,OC43-CoV 3CL^pro,0.51 ± 0.12 nM
same,IC50,Human Cathepsin D,> 11000 nM
same,Individual fraction unbound,"[1]; human plasma, 5.0 uM, replicates Day 1-3",0.474 and 0.429 and 0.385 and 0.458 and 0.463 and 0.507 and 0.437 and 0.428 and 0.477 and 0.486
same,"fraction unbound at 6 h, 5 uM","[1]; pH 7.4, Fraction unbound, Geomean, human plasma, 5.0 uM, n 12",0.449
same,"fraction unbound at 6 h, 5 uM","[1]; pH 7.4, Individual fraction unbound, human plasma, 5.0 uM, replicates Day 1-3",0.423
same,fraction unbound at 6 h,"[1]; pH 7.4, Measured plasma fu / Human plasma fu, human plasma",0.449
same,fraction unbound at 6 h,"[1]; pH 7.4, Unbound fraction fu (%CV), human plasma",0.449
same,"fraction unbound at 6 h, 5 uM","[1]; pH 7.4, fraction unbound Geomean, human plasma, 5.0 uM, n=12",0.449
same,fraction unbound at 6 h,"[1]; pH 7.4, fu, fu,plasma, Simcyp input parameter (User), substrate",0.449
same,"fu, human liver microsomal binding","[2]; Microsomal protein 0.806mg/ml, individual replicates",0.70 and 0.77
same,HLM microsomal binding,[2]; clearance input,0.75
same,fraction unbound at 6 h,"[2]; human liver microsomal binding, Geomean, Microsomal protein 0.806mg/ml",0.75
same,fraction unbound at 6 h,"[2]; human liver microsomal binding, Microsomal protein 0.806mg/ml, individual replicates",0.84
same,fraction unbound at 6 h,"[2]; microsomal protein 0.806mg/ml, individual replicates n=1-4",0.7
same,Percent of Control Activity,"CYP2C19; CYP 2C19, 0.1 µM, Zero-Minute Preincubation, 0.1 µM",97.1% and 93.1%
same,Percent of Control Activity,"CYP2C19; CYP 2C19, 0.214 µM, 30-Minute Preincubation, 0.214 µM",94.5% and 97.7%
same,Percent of Control Activity,"CYP2C19; CYP 2C19, 0.214 µM, Zero-Minute Preincubation, 0.214 µM",96.9% and 95.6%
same,Percent of Control Activity,"CYP2C19; CYP 2C19, 0.979 µM, Zero-Minute Preincubation, 0.979 µM",91.0% and 93.6%
same,Percent of Control Activity,"CYP2C19; CYP 2C19, 2.09 µM, 30-Minute Preincubation, 2.09 µM",78.6% and 76.3%
same,Percent of Control Activity,"CYP2C19; CYP 2C19, 2.09 µM, Zero-Minute Preincubation, 2.09 µM",89.4% and 88.4%
same,Percent of Control Activity,"CYP2C19; CYP 2C19, 4.48 µM, 30-Minute Preincubation, 4.48 µM",87.7% and 90.1%
same,Percent of Control Activity,"CYP2C19; CYP 2C19, 4.48 µM, Zero-Minute Preincubation, 4.48 µM",88.9% and 87.5%
same,Percent of Control Activity,"CYP2C19; CYP 2C19, 20.5 µM, 30-Minute Preincubation, 20.5 µM",82.9% and 81.5%
same,Percent of Control Activity,"CYP2C19; CYP 2C19, 20.5 µM, Zero-Minute Preincubation, 20.5 µM",89.8% and 81.5%
same,Percent of Control Activity,"CYP2C19; CYP 2C19, 43.8 µM, 30-Minute Preincubation, 43.8 µM",68.7%
same,Percent of Control Activity,"CYP2C19; CYP 2C19, 43.8 µM, Zero-Minute Preincubation, 43.8 µM",83.4% and 80.9%
same,Percent of Control Activity,"CYP2C19; CYP 2C19, 93.5 µM, 30-Minute Preincubation, 93.5 µM",66.6% and 74.6%
same,Percent of Control Activity,"CYP2C19; CYP 2C19, 93.5 µM, Zero-Minute Preincubation, 93.5 µM",77.3%
same,Percent of Control Activity,"CYP2C19; CYP 2C19, 200 µM, 30-Minute Preincubation, 200 µM",62.1% and 65.9%
same,Percent of Control Activity,"CYP2C19; CYP 2C19, 200 µM, Zero-Minute Preincubation, 200 µM",65.6% and 68.4%
same,IC50,"CYP2C19; human, microsomes, pH 7.4",> 200000 nM
same,activity at 0.1 µM,"CYP2C19; human, microsomes, pH 7.4, Percent of Control Activity, CYP 2C19, 0.1 µM, Zero-Minute Preincubation",95.2%
same,activity at 0.214 µM,"CYP2C19; human, microsomes, pH 7.4, Percent of Control Activity, CYP 2C19, 0.214 µM, 30-Minute Preincubation",99%
same,activity at 0.214 µM,"CYP2C19; human, microsomes, pH 7.4, Percent of Control Activity, CYP 2C19, 0.214 µM, Zero-Minute Preincubation",92.9%
same,activity at 0.979 µM,"CYP2C19; human, microsomes, pH 7.4, Percent of Control Activity, CYP 2C19, 0.979 µM, Zero-Minute Preincubation",81.3%
same,activity at 2.09 µM,"CYP2C19; human, microsomes, pH 7.4, Percent of Control Activity, CYP 2C19, 2.09 µM, 30-Minute Preincubation",79.9%
same,activity at 2.09 µM,"CYP2C19; human, microsomes, pH 7.4, Percent of Control Activity, CYP 2C19, 2.09 µM, Zero-Minute Preincubation",85.8%
same,activity at 4.48 µM,"CYP2C19; human, microsomes, pH 7.4, Percent of Control Activity, CYP 2C19, 4.48 µM, 30-Minute Preincubation",88.7%
same,activity at 4.48 µM,"CYP2C19; human, microsomes, pH 7.4, Percent of Control Activity, CYP 2C19, 4.48 µM, Zero-Minute Preincubation",83.6%
same,activity at 20.5 µM,"CYP2C19; human, microsomes, pH 7.4, Percent of Control Activity, CYP 2C19, 20.5 µM, 30-Minute Preincubation",83.9%
same,activity at 20.5 µM,"CYP2C19; human, microsomes, pH 7.4, Percent of Control Activity, CYP 2C19, 20.5 µM, Zero-Minute Preincubation",86.2%
same,activity at 43.8 µM,"CYP2C19; human, microsomes, pH 7.4, Percent of Control Activity, CYP 2C19, 43.8 µM, 30-Minute Preincubation",81.3%
same,activity at 43.8 µM,"CYP2C19; human, microsomes, pH 7.4, Percent of Control Activity, CYP 2C19, 43.8 µM, Zero-Minute Preincubation",85%
